Measurements taken from US5043154A, “Antibacterial, antiplaque, anticalculus oral composition” (priority 1989, dated 1991).

Columns and labels:
[1] = human clinical tests, reduction of plaque formation; assay type: in vivo
[2] = test system: four dental plaque organisms; test: MIC test on the four dental plaque organisms, summary in words; assay type: cell-based; conditions: without TCHE
Description: (§1) Slurries and solutions described below are prepared to determine effectiveness in terms of minimum inhibitory concentration (MIC) of various antibacterial agents against a variety of oral bacterial organisms implicated in formation of plaque and leading to gingivitis on dental surfaces. Soft plaque contains about 1.7×10^11 organism/gm. (net weight). The antibacterial agents are admixed with anionic materials, particularly anionic surface active agent often commonly employed in oral compositions and polyphosphate anticalculus agent.
(§2) Minimum inhibitory concentration (MIC) of antibacterial agent is used to evaluate the efficacy of the agent in vitro. […] The smaller the MIC value the greater is the efficacy of the antibacterial agent to inhibit the growth of the bacteria. The in vitro MIC data is related to the efficacy of the dentifrice in vivo since retention and release of antibacterial agent into the oral cavity after toothbrushing is in the range of mcg/ml.

[3] = test system: Bacteriodes gingivalis; test: Minimum inhibitory concentration (MIC) against Bacteriodes gingivalis, in vitro; assay type: cell-based
Description: as §1, §2

[4] = test system: Bacteriodes intermedius; test: Minimum inhibitory concentration (MIC) against Bacteriodes intermedius, in vitro; assay type: cell-based
Description: as §1, §2

[5] = test system: Actinobacillus actinomycetemcomitans; test: Minimum inhibitory concentration (MIC) against Actinobacillus actinomycetemcomitans, in vitro; assay type: cell-based
Description: as §1, §2

[6] = test system: Streptococcus mutans; test: Minimum inhibitory concentration (MIC) against Streptococcus mutans, in vitro; assay type: cell-based
Description: as §1, §2

[7] = test system: Bacteriodes gingivalis; test: inhibition of growth of Bacteriodes gingivalis by dentifrice extracts; assay type: cell-based; conditions: dentifrice containing anionic surfactant plus pyrophosphate with enzyme inhibitors Gantrez and NaF
Description: The dentifrice described in Example 3A is compared with the same composition except without any TCHE and with added 0.50 parts of water. Aqueous extracts of each dentifrice are prepared as follows: 50 ml of distilled water is added to 1.0 gm of each dentifrice, mixed well for a couple of hours with stirring bar and centrifuged, after which the supernatant is collected as aqueous extract. Antibacterial activity of the dentifrice extracts are evaluated on Bacteriodes gingivalis.

[8] = 0.5% TCHE, 1% SLS, 1% Gantrez, 2% Pyrophosphate and 0.2% NaF in water

CC(C)(C)CC(C)(C)c1ccc(OCCOCC[N+](C)(C)Cc2ccccc2)cc1 [BTC, benzethonium chloride]
reducing plaque formation ([1]; 0.075% BTC and 1% pyrophosphate dissolved in water): is not
reducing plaque formation ([1]; 0.075% BTC dissolved in water): effective in reducing plaque formation

N=C(NCCCCCCNC(=N)NC(=N)Nc1ccc(Cl)cc1)NC(=N)Nc1ccc(Cl)cc1 [CH, chlorhexidine digluconate]
reducing plaque formation ([1]; 0.1% CH and 1% sodium N-lauroyl sarcosinate dissolved in water): is not
reducing plaque formation ([1]; 0.1% CH dissolved in water): effective in reducing plaque formation

CCCCCCCCCCCCOS(=O)(=O)[O-].[Na+] [SLS, sodium lauryl sulfate]
antibacterial effect [2]: ineffective

Oc1cc(Cl)ccc1Oc1ccc(Cl)cc1Cl [TCHE, 2,4,4'-trichloro-2'-hydroxydiphenyl ether]
Minimum Inhibition Concentration (MIC), Bacteriodes gingivalis ([3]; 0.5% TCHE and 1% SLS in water): 2.5 µg/mL
Minimum Inhibition Concentration (MIC), Bacteriodes gingivalis [3, 8]: 2.5 µg/mL
Minimum Inhibition Concentration (MIC), Bacteriodes intermedius ([4]; 0.5% TCHE and 1% SLS in water): 2.5 µg/mL
Minimum Inhibition Concentration (MIC), Bacteriodes intermedius [4, 8]: 2.5 µg/mL
Minimum Inhibition Concentration (MIC), Actinobacillus actinomycetemcomitans ([5]; 0.5% TCHE and 1% SLS in water): 5.0 µg/mL
Minimum Inhibition Concentration (MIC), Actinobacillus actinomycetemcomitans [5, 8]: 5.0 µg/mL
Minimum Inhibition Concentration (MIC), Streptococcus mutans ([6]; 0.5% TCHE and 1% SLS in water): 25.0 µg/mL
Minimum Inhibition Concentration (MIC), Streptococcus mutans [6, 8]: 25.0 µg/mL
compatibility in dentifrice composition [7]: compatible
